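A five-concentration, 48-hour dose response in 96-well plates underlies each endpoint, interpolated linearly between surrounding concentrations. The concentration for full growth arrest is given as TGI.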
Key:
Experiment in all cases: NCI-60 cell line screen, 48 h
[1] = test system: K-562 leukemia
[2] = test system: CCRF-CEM leukemia
[3] = test system: MDA-MB-231 breast
[4] = test system: HCT-116 colon
[5] = test system: UACC-257 melanoma
[6] = test system: DU-145 prostate
[7] = test system: HCT-15 colon
[8] = test system: U251 CNS
[9] = test system: OVCAR-3 ovarian
[10] = test system: LOX IMVI melanoma
[11] = test system: OVCAR-5 ovarian
[12] = test system: NCI-H23 lung
[13] = test system: COLO 205 colon
[14] = test system: HL-60(TB) leukemia

SMILES | TGI [1] [µM] | TGI [2] [µM] | TGI [3] [µM] | TGI [4] [µM] | TGI [5] [µM] | TGI [6] [µM] | TGI [7] [µM] | TGI [8] [µM] | TGI [9] [µM] | TGI [10] [µM] | TGI [11] [µM] | TGI [12] [µM] | TGI [13] [µM] | TGI [14] [µM]
Cn1c2ccccc2c2c3c(c4c5ccccc5n(C)c4c21)C(=O)N(c1ccccc1)C3=O | > 100 | > 100 | > 100 | > 100 | > 100 | > 100 | > 100 | > 100 | > 100 | > 100 | > 100 | > 100 | > 100 | –
Fc1ccc2c(c1)nc1n2C(c2c(F)cccc2F)SC1 (stereo not given) | – | – | > 100 | > 100 | > 100 | > 100 | > 100 | > 100 | > 100 | > 100 | > 100 | > 100 | > 100 | 70
O=c1[nH]c2ccc(C(F)(F)F)cc2nc1C(F)(F)F | > 100 | 42.7 | 96.5 | 60.7 | 64.4 | > 100 | > 100 | > 100 | 41.8 | 60.8 | > 100 | 46.9 | 39.8 | –
NS(=O)(=O)c1ccc(NCc2nc3ccccc3[nH]2)cc1 | – | – | > 100 | > 100 | > 100 | > 100 | > 100 | > 100 | > 100 | > 100 | > 100 | > 100 | > 100 | –
Cc1cc(O)c(C(C)C)cc1C(=S)Nc1ccc(Cl)cc1 | 23.4 | 16.7 | – | 26 | 23.8 | 31.5 | 25.1 | 27.8 | 27.9 | 24 | 28.3 | 17.7 | 31.5 | 24.9
Nc1ncc2c(n1)-c1ccccc1OC2 | > 100 | > 100 | – | > 100 | > 100 | – | > 100 | > 100 | > 100 | > 100 | > 100 | > 100 | > 100 | > 100
CC(C)=C=CP(=O)(O)c1ccccc1 | > 100 | – | – | > 100 | > 100 | > 100 | > 100 | > 100 | > 100 | > 100 | > 100 | > 100 | > 100 | > 100
COc1cc2nc(-c3cccs3)nc(N3C(c4cc(OC)c(OC)c(OC)c4)=NNC(=O)c4ccccc43)c2cc1OC | > 100 | – | 40.6 | > 100 | > 100 | 91.1 | 47.8 | 50.4 | 50.2 | 45.8 | 54.5 | 35.4 | > 100 | > 100
N#Cc1c(N2CCCC2)nsc1Nc1ccccc1 | > 100 | > 100 | > 100 | > 100 | > 100 | > 100 | > 100 | – | – | > 100 | > 100 | > 100 | > 100 | > 100
Clc1ncnc2c1nc(C#Cc1ccccc1)n2C1CCCCO1 (stereo not given) | 7.46 | > 100 | 12.7 | 4.02 | 6.01 | 2.79 | – | 4.29 | 2.92 | 4.79 | 4.84 | 4.15 | 2.97 | 6.94
COc1cc(-c2nc(SC)nc3c2CCc2ccccc2-3)cc(OC)c1OC | 79.2 | > 100 | > 100 | > 100 | > 100 | > 100 | – | > 100 | > 100 | > 100 | > 100 | > 100 | > 100 | > 100
COc1ccc(/C=C2\OC(=O)C(Cl)=C2c2ccc(OC)c(Cl)c2)cc1 | > 100 | > 100 | – | > 100 | > 100 | > 100 | > 100 | > 100 | 43.7 | > 100 | 90.5 | 44.9 | > 100 | > 100
Cc1ccc(C)c2c1n1c(=O)n(C)c(=O)n21 | – | > 100 | > 100 | > 100 | > 100 | > 100 | > 100 | > 100 | > 100 | > 100 | > 100 | > 100 | > 100 | > 100
Cc1ccc(S(=O)(=O)N/N=C\c2c3ccccc3[n+](C)c3ccccc23)cc1 | 52.7 | 44.2 | – | > 100 | > 100 | – | 97.4 | 71.3 | 71.5 | 52.9 | > 100 | > 100 | – | 59.6
O=S(=O)(O)c1cc(N=[N+]([O-])c2ccc(N=Nc3ccccc3)cc2S(=O)(=O)O)ccc1/C=C/c1ccc(N=[N+]([O-])c2ccc(N=Nc3ccccc3)cc2S(=O)(=O)O)cc1S(=O)(=O)O | > 100 | > 100 | – | > 100 | > 100 | – | > 100 | > 100 | > 100 | > 100 | > 100 | > 100 | > 100 | > 100
O=c1onc(Nc2ccccc2)n1-c1ccccc1 | > 100 | > 100 | > 100 | > 100 | > 100 | – | > 100 | > 100 | > 100 | > 100 | > 100 | > 100 | > 100 | > 100
COC(=O)C(CNC(=O)/C=C/c1ccc(OC(C)=O)c(OC(C)=O)c1)NC(=O)/C=C/c1ccc(OC(C)=O)c(OC(C)=O)c1 (stereo not given) | > 100 | > 100 | > 100 | > 100 | > 100 | > 100 | > 100 | > 100 | > 100 | > 100 | > 100 | > 100 | > 100 | –
O=NNc1c[nH]c(=O)[nH]c1=O | > 100 | > 100 | > 100 | > 100 | > 100 | > 100 | > 100 | > 100 | > 100 | > 100 | – | > 100 | > 100 | > 100
